Test results as given in patent US11993599B2, “Therapeutic compounds” (Genentech, Inc., priority 2021, dated 2024).

What was measured:
BRG1 = target: T1, BRG1 (Homo sapiens, UniProt P51532); assay: Immunofluorescence assay for BRG1 degradation in SW1573 cells; format: cell-based; details: 20 hours incubation; for DC50: immunofluorescence mean nuclear signal, read-out: BRG1 IF Degradation IC50; for Dmax: SW1573, 20 h, normalized to a known degrader control, read-out: BRG1 IF Degradation Sinf (%)
T1 construct: either BRM primary antibody (Cell signaling Cat #11966) or BRG primary antibody (Abcam, ab 110641); endogenous in cells; host or cells: SW1573
Method in brief: (§1)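 Cells seeded one day before dosing, exposed to compounds for 20 hours, then fixed, permeabilized, blocked and stained overnight at 4 °C with anti-BRM or anti-BRG1 antibody. Nuclear fluorescence intensity per cell, normalized to a degrader control, gave concentration-response curves fitted with a floating maximum.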

BRM = BRM (Homo sapiens, UniProt P51531); assay: Immunofluorescence assay for BRM degradation in SW1573 cells; format: cell-based; design: treated overnight at 4° C. with either BRM primary antibody (Cell signaling Cat #11966) or BRG primary antibody; endogenous in cells; host or cells: SW1573; details: 20 hours incubation; for DC50: immunofluorescence mean nuclear signal, read-out: BRM IF Degradation IC50; for BRM IF Degradation Sinf (%): normalized to a known degrader control
Method in brief: as §1

T1 sequence (P51532 whole entry): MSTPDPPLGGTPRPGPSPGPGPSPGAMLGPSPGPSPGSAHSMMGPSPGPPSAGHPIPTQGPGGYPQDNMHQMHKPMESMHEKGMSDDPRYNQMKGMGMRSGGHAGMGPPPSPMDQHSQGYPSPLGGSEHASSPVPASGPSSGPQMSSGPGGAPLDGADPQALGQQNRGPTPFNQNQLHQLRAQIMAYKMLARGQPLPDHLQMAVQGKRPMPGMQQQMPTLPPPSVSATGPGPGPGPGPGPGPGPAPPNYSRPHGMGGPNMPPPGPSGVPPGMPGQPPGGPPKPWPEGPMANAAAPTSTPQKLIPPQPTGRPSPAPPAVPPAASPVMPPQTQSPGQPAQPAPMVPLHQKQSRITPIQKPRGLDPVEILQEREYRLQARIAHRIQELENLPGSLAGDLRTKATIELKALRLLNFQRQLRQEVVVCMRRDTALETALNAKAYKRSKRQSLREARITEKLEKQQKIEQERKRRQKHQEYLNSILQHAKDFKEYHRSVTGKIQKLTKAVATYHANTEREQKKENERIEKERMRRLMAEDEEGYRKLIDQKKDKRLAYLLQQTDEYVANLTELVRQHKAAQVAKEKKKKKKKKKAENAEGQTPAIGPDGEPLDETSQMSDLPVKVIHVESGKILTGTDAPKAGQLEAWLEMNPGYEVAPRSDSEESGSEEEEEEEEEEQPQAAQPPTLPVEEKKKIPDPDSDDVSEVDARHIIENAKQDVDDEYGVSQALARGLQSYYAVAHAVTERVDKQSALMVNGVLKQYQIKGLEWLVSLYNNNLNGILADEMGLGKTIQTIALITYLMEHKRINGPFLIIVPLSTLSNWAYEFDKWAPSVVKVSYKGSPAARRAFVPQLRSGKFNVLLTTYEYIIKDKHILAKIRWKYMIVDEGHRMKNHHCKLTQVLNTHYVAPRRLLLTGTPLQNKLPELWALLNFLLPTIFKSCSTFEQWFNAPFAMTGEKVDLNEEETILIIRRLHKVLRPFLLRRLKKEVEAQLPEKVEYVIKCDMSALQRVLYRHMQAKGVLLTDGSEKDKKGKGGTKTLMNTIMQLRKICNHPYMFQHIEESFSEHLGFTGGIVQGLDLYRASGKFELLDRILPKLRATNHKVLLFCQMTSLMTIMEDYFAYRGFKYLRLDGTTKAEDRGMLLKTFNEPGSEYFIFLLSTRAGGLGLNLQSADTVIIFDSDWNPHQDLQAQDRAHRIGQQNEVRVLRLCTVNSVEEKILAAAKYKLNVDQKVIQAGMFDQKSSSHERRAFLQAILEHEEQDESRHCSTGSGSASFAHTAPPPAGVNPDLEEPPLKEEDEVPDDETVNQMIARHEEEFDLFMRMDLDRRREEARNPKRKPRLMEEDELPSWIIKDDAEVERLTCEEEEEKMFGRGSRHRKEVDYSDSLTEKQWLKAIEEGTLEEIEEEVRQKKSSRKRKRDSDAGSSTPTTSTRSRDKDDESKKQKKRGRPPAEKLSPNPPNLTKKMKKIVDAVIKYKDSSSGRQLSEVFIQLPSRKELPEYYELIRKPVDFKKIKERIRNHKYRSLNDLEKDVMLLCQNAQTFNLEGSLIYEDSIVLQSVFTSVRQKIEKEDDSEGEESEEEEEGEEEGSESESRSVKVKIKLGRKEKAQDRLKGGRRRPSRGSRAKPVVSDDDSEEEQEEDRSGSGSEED
Chain of BRM (P51531 whole entry): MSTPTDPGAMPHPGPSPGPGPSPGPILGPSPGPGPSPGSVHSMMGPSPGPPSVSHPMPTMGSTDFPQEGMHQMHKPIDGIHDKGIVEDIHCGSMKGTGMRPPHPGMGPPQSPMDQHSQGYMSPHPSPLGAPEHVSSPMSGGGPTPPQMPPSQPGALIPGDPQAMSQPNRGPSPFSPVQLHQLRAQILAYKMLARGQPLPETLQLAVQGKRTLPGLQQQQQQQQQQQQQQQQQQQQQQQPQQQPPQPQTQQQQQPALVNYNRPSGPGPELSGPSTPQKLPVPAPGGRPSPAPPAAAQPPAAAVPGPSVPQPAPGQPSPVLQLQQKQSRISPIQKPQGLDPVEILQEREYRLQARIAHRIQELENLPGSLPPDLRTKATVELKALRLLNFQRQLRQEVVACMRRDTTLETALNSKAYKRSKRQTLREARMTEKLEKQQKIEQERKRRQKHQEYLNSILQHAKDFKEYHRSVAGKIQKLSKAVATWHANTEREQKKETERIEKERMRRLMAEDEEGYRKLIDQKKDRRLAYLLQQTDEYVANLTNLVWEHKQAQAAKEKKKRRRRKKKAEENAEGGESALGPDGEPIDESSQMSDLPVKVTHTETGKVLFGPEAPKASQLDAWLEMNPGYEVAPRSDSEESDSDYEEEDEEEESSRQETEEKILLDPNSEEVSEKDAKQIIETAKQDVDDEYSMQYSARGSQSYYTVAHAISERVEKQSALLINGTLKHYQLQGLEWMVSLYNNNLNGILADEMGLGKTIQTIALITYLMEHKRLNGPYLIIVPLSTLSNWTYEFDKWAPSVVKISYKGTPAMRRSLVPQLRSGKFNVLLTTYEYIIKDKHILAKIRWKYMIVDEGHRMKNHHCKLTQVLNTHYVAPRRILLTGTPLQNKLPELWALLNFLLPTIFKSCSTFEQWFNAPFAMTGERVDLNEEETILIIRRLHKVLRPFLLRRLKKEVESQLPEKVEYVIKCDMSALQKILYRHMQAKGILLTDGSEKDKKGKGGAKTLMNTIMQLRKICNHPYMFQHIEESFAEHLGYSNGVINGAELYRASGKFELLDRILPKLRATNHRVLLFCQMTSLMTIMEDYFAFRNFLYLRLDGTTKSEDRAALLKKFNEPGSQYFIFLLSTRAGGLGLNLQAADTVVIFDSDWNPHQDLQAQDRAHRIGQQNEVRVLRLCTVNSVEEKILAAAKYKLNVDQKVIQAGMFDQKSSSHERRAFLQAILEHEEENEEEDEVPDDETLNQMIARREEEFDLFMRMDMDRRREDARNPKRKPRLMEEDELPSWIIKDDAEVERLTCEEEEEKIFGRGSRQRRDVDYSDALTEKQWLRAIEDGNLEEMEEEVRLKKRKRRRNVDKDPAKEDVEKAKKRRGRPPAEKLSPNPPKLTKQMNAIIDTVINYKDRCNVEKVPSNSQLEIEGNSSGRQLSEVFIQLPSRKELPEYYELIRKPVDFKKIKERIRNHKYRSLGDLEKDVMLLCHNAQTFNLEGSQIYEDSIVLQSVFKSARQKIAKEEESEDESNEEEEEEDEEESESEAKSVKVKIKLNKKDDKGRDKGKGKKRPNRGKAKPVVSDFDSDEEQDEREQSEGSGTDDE

| Compound | DC50 (BRG1) [nM] | Dmax (BRG1) [%] | DC50 (BRM) [nM] | BRM IF Degradation Sinf (%) (BRM) |
| --- | --- | --- | --- | --- |
| Nc1nnc(-c2ccccc2O)cc1N1CC2CCC(C1)N2c1ccnc(C#CCN2CCC3(CCCC3)C2)c1 [Compound 127, 2-[6-amino-5-[8-[2-[3-(2-azaspiro[4.4]nonan-2-yl)prop-1-ynyl]-4-pyridyl]-3,8-diazabicyclo[3.2.1]octan-3-yl]pyridazin-3-yl]phenol] | < 10 | 30 to 70 | < 10 | E (E indicates −30%-−70%) |
| CCOC1CN(CC#Cc2cc(N3C4CCC3CN(c3cc(-c5ccccc5O)nnc3N)C4)ccn2)C1 [Compound 224, 2-[6-amino-5-[8-[2-[3-(3-ethoxyazetidin-1-yl)prop-1-ynyl]-4-pyridyl]-3,8-diazabicyclo[3.2.1]octan-3-yl]pyridazin-3-yl]phenol] | < 10 | 30 to 70 | < 10 | E (E indicates −30%-−70%) |
| Nc1nnc(-c2ccccc2O)cc1N1CC2CCC(C1)N2c1ccnc(C#CCN2CCC3CC32)c1 (stereo not drawn) [Compound 87, 2-[6-amino-5-[8-[2-[3-(2-azabicyclo[3.1.0]hexan-2-yl)prop-1-ynyl]-4-pyridyl]-3,8-diazabicyclo[3.2.1]octan-3-yl]pyridazin-3-yl]phenol] | < 10 | 30 to 70 | < 10 | E (E indicates −30%-−70%) |
| Nc1nnc(-c2ccccc2O)cc1N1CC2CCC(C1)N2c1ccnc(C#CCN2CCN(C3CC3)CC2)c1 [Compound 38, 2-[6-amino-5-[8-[2-[3-(4-cyclopropylpiperazin-1-yl)prop-1-ynyl]-4-pyridyl]-3,8-diazabicyclo[3.2.1]octan-3-yl]pyridazin-3-yl]phenol] | > 100 |  | 10 to 100 | E (E indicates −30%-−70%) |
| COC1CCCN(CC#Cc2cc(N3C4CCC3CN(c3cc(-c5ccccc5O)nnc3N)C4)ccn2)C1 (stereo not drawn) [Compound 37, 2-[6-amino-5-[8-[2-[3-(3-methoxy-1-piperidyl)prop-1-ynyl]-4-pyridyl]-3,8-diazabicyclo[3.2.1]octan-3-yl]pyridazin-3-yl]phenol] | < 10 | 30 to 70 | 10 to 100 | E (E indicates −30%-−70%) |
| Nc1nnc(-c2ccccc2O)cc1N1CC2CCC(C1)N2c1ccnc(C#CCN2CC3CCOC3C2)c1 (stereo not drawn) [Compound 81, 2-[5-[8-[2-[3-(2,3,3a,4,6,6a-hexahydrofuro[2,3-c]pyrrol-5-yl)prop-1-ynyl]-4-pyridyl]-3,8-diazabicyclo[3.2.1]octan-3-yl]-6-amino-pyridazin-3-yl]phenol] | < 10 | 30 to 70 | < 10 | E (E indicates −30%-−70%) |
| Nc1nnc(-c2ccccc2O)cc1N1CC2CCC(C1)N2c1ccnc(C#CCN2CC3CC2(CO)C3)c1 [Compound 116, 2-[6-amino-5-[8-[2-[3-[1-(hydroxymethyl)-2-azabicyclo[2.1.1]hexan-2-yl]prop-1-ynyl]-4-pyridyl]-3,8-diazabicyclo[3.2.1]octan-3-yl]pyridazin-3-yl]phenol] | < 10 | 0 to 30 | 10 to 100 | E (E indicates −30%-−70%) |
| Nc1nnc(-c2ccccc2O)cc1N1CC2CCC(C1)N2c1ccnc(C#CCN2CC3CCOCC3C2)c1 (stereo not drawn) [Compound 92, 2-[5-[8-[2-[3-(3,3a,4,6,7,7a-hexahydro-1H-pyrano[3,4-c]pyrrol-2-yl)prop-1-ynyl]-4-pyridyl]-3,8-diazabicyclo[3.2.1]octan-3-yl]-6-amino-pyridazin-3-yl]phenol] | < 10 | 30 to 70 | < 10 | F (F indicates −71%-−120%) |
| Nc1nnc(-c2ccccc2O)cc1N1CC2CCC(C1)N2c1ccnc(C#CCN2CCCCC23CC3)c1 [Compound 153, 2-[6-amino-5-[8-[2-[3-(4-azaspiro[2.5]octan-4-yl)prop-1-ynyl]-4-pyridyl]-3,8-diazabicyclo[3.2.1]octan-3-yl]pyridazin-3-yl]phenol] | < 10 | 0 to 30 | < 10 | E (E indicates −30%-−70%) |
| Nc1nnc(-c2ccccc2O)cc1N1CC2CCC(C1)N2c1ccnc(C#CCN2CC3CCCCC3C2)c1 (stereo not drawn) [Compound 39, 2-[5-[8-[2-[3-(1,3,3a,4,5,6,7,7a-octahydroisoindol-2-yl)prop-1-ynyl]-4-pyridyl]-3,8-diazabicyclo[3.2.1]octan-3-yl]-6-amino-pyridazin-3-yl]phenol] | < 10 | 30 to 70 | < 10 | F (F indicates −71%-−120%) |
| CC1CN(CC#Cc2cc(N3C4CCC3CN(c3cc(-c5ccccc5O)nnc3N)C4)ccn2)CC(C)O1 (stereo not drawn) [Compound 79, 2-[6-amino-5-[8-[2-[3-(2,6-dimethylmorpholin-4-yl)prop-1-ynyl]-4-pyridyl]-3,8-diazabicyclo[3.2.1]octan-3-yl]pyridazin-3-yl]phenol] | > 100 |  | 10 to 100 | E (E indicates −30%-−70%) |
| Nc1nnc(-c2ccccc2O)cc1N1CC2CCC(C1)N2c1cnnc(C#CCN2CCCCCC2)c1 [Compound 246, 2-(6-amino-5-(8-(6-(3-(azepan-1-yl)prop-1-yn-1-yl)pyridazin-4-yl)-3,8-diazabicyclo[3.2.1]octan-3-yl)pyridazin-3-yl)phenol] | < 10 | 71 to 120 | 10 to 100 | F (F indicates −71%-−120%) |
| CC1CCCCN(CC#Cc2cc(N3C4CCC3CN(c3cc(-c5ccccc5O)nnc3N)C4)ccn2)C1 (stereo not drawn) [Compound 192, 2-[6-amino-5-[8-[2-[3-(3-methylazepan-1-yl)prop-1-ynyl]-4-pyridyl]-3,8-diazabicyclo[3.2.1]octan-3-yl]pyridazin-3-yl]phenol] | < 10 | 71 to 120 | < 10 | F (F indicates −71%-−120%) |
| CN(CC#Cc1cc(N2C3CCC2CN(c2cc(-c4ccccc4O)nnc2N)C3)ccn1)CC(=O)N1CCOCC1 [Compound 85, 2-[3-[4-[3-[3-amino-6-(2-hydroxyphenyl)pyridazin-4-yl]-3,8-diazabicyclo[3.2.1]octan-8-yl]-2-pyridyl]prop-2-ynyl-methyl-amino]-1-morpholino-ethanone] | > 100 |  | > 100 | E (E indicates −30%-−70%) |
| Nc1nnc(-c2ccccc2O)cc1N1CC2CCC(C1)N2c1ccnc(C#CCN2C3CCC(C3)C2CO)c1 (stereo not drawn) [Compound 103, 2-[6-amino-5-[8-[2-[3-[3-(hydroxymethyl)-2-azabicyclo[2.2.1]heptan-2-yl]prop-1-ynyl]-4-pyridyl]-3,8-diazabicyclo[3.2.1]octan-3-yl]pyridazin-3-yl]phenol] | > 100 | 30 to 70 | < 10 | E (E indicates −30%-−70%) |
| Nc1nnc(-c2ccccc2O)cc1N1CC2CCC(C1)N2c1ccnc(C#CCN2CC3CC3C2)c1 (stereo not drawn) [Compound 68, 2-[6-amino-5-[8-[2-[3-(3-azabicyclo[3.1.0]hexan-3-yl)prop-1-ynyl]-4-pyridyl]-3,8-diazabicyclo[3.2.1]octan-3-yl]pyridazin-3-yl]phenol;] | < 10 | 30 to 70 | < 10 | F (F indicates −71%-−120%) |
| Nc1nnc(-c2ccccc2O)cc1N1CC2CCC(C1)N2c1ccnc(C#CCN2C3COCC2CC(F)C3)c1 (stereo not drawn) [Compound 144, 2-[6-amino-5-[8-[2-[3-(7-fluoro-3-oxa-9-azabicyclo[3.3.1]nonan-9-yl)prop-1-ynyl]-4-pyridyl]-3,8-diazabicyclo[3.2.1]octan-3-yl]pyridazin-3-yl]phenol] | 10 to 100 | 0 to 30 | > 100 | E (E indicates −30%-−70%) |
| Nc1nnc(-c2ccccc2O)cc1N1CC2CCC(C1)N2c1ccnc(C#CCN2CCCC(C(F)(F)F)CC2)c1 (stereo not drawn) [Compound 209, 2-[6-amino-5-[8-[2-[3-[4-(trifluoromethyl)azepan-1-yl]prop-1-ynyl]-4-pyridyl]-3,8-diazabicyclo[3.2.1]octan-3-yl]pyridazin-3-yl]phenol] | < 10 | 30 to 70 | < 10 | F (F indicates −71%-−120%) |
| Nc1nnc(-c2ccccc2O)cc1N1CC2CCC(C1)N2c1ccnc(C#CCN2CC3(CCCO3)C2)c1 [Compound 178, 2-[6-amino-5-[8-[2-[3-(5-oxa-2-azaspiro[3.4]octan-2-yl)prop-1-ynyl]-4-pyridyl]-3,8-diazabicyclo[3.2.1]octan-3-yl]pyridazin-3-yl]phenol] | < 10 | 30 to 70 | 10 to 100 | F (F indicates −71%-−120%) |
| Nc1nnc(-c2ccccc2O)cc1N1CC2CCC(C1)N2c1ccnc(C#CCN2CCC(O)C2)c1 (stereo not drawn) [Compound 52, 1-[3-[4-[3-[3-amino-6-(2-hydroxyphenyl)pyridazin-4-yl]-3,8-diazabicyclo[3.2.1]octan-8-yl]-2-pyridyl]prop-2-ynyl]pyrrolidin-3-ol] | 10 to 100 | 30 to 70 | 10 to 100 | E (E indicates −30%-−70%) |
| Nc1nnc(-c2ccccc2O)cc1N1CC2CCC(C1)N2c1ccnc(C#CCN2CCC[C@@H]2CO)c1 [Compound 65, 2-[6-amino-5-[8-[2-[3-[(2R)-2-(hydroxymethyl)pyrrolidin-1-yl]prop-1-ynyl]-4-pyridyl]-3,8-diazabicyclo[3.2.1]octan-3-yl]pyridazin-3-yl]phenol] | 10 to 100 | 0 to 30 | < 10 | E (E indicates −30%-−70%) |
